Laboratory results: patent publication US9132082B2, “Compositions and methods for inhibiting gastric acid secretion” (Vecta, Ltd., priority 2005, dated 2015)

Legend:
gastric acid secretion [1] = conditions: administered after ligation of the pylorus; FIG. 5
Method: The possibility that succinic acid induces gastric acid secretion via local effect on the gastric lumen was tested in animals in which sodium succinate was administered after the ligation of the pylorus.

gastric acid secretion [2] = conditions: 15 mg/kg per os, pylorus ligated 30 min later, gastric juice after 60 min; FIG. 1
Method: Rats were administered (per os) with 15 mg/kg of sodium succinate (Na-SA) using gavage. 30 minutes later the rats were anesthetized with ketamine/domitor and the pylorus was ligated. Following additional 60 min, gastric juice was collected from the gastric lumen. Acid output was determined by titration with NaOH. Total acid output expressed in mEq HCl was calculated by multiplying the sample volume by the acid concentration. Results are expressed as means±SEM of 12 animals from each experimental group.

gastric acid output = conditions: extracted from fermented alcoholic beverages; Teyssen et al.; cited from earlier work
gastric acid secretion [3] = experiment: Conscious pylorus-ligated rats: pantoprazole alone or with succinic or maleic acid; assay type: in vivo; conditions: maleic acid 14.7 mg/kg with pantoprazole 3 mg/kg; FIG. 4
Method: This experimental model permits the analysis of the effect of drugs on gastric acid secretion in conscious animals and avoids the effect of anesthesia on gastric acid secretion. […] The ligature was placed around the esophagus, the stomach removed and gastric content was collected. Following centrifugation, the gastric output and the pH of the gastric juice samples was determined.

[4] = tested on: nocturnal gastric acid secretion; experiment: Clinical study: bedtime omeprazole with succinic acid one hour later, gastric pH probe; assay type: in vivo, human; conditions: average n = 7
Method: Succinic Acid was administered one hour following Omeprazole administration. Gastric pH was measured on Day 1 and 5 using a pH probe. The pH probe was inserted into the distal portion of the stomach and located 20 cm below the lower esophageal sphincter. Baseline measurements of gastric pH were performed before omeprazole administration and during the following 24 hours. Standard meals were administered during pH monitoring. Blood samples for PK analysis of Omeprazole were drawn on Day 1 and 5. After a washout period of at least 14 days, the same subjects were administered with Omeprazole 40 mg alone.

gastric pH = experiment: Further clinical study: omeprazole and SA capsules co-administered at bedtime, 24 h gastric pH; assay type: in vivo, human; conditions: 10:00 pm on empty stomach
Method: In a further clinical study; healthy human volunteers were administered with Omeprazole and SA capsules which were co-administered at bed-time: Treatment T1-40 mg Omeprazole plus 600 mg SA; Treatment T2-40 mg Omeprazole plus 300 mg SA; Treatment T3-20 mg Omeprazole plus 300 mg SA. The study included gastric pH measurements on day 1 (first dose), day 3 (third dose) and day 5 (fifth dose). Study medications were administered at 10:00 pm on empty stomach and pH measurements were recorded for 24 hrs. The percentage time of gastric pH above 4 following the administration of SA and Omeprazole was calculated after the first dose, the third dose and the fifth dose.

gastric acid secretion [5] = experiment: 3-way crossover clinical trial of Cap-in-Cap OMP/SA versus OMP, 24 hour intra-gastric pH; assay type: in vivo, human; conditions: OMP/SA at bedtime without food, OMP 20 mg before breakfast
Method: Thirty-six (36), H. pylori negative, healthy human volunteers received OMP 20 mg/SA 300 mg or OMP 40 mg/SA 300 mg at bedtime without food formulated as Cap-in-Cap capsules and OMP 20 mg dosed on an empty stomach before breakfast. These drugs were tested in a 3-way, randomized crossover study. […] Each treatment was administered once daily, for 5 consecutive days with a washout period of 21-25 days between treatments. 24 Hour intra-gastric pH monitoring was performed following the fifth dose (day 5).

frog mucosa = conditions: ex vivo model of frog mucosa; cited from earlier work
[6] = Day 1, bedtime dosing without a meal
[7] = Day 5, bedtime dosing without a meal

O=C([O-])CCC(=O)[O-].[Na+].[Na+] [sodium succinate]
acid secretion (gastric acid secretion [1]): capable of inducing acid secretion | gastric acid secretion (total acid output) (gastric acid secretion [2]): significantly enhanced gastric acid secretion

O=C(O)/C=C\C(=O)O [maleic acid]
gastric acid output in humans (gastric acid output): stimulate gastric acid output | inhibitory effect of pantoprazole on gastric acid secretion (gastric acid secretion [3]): enhanced the inhibitory effect of pantoprazole

COc1ccc2[nH]c([S+]([O-])Cc3ncc(C)c(OC)c3C)nc2c1 (stereo not drawn) [Omeprazole, omeprazole]
2:00-4:00 AM (% time pH > 4) [4, 6]: 32.72% | 4:00-6:00 AM (% time pH > 4) [4, 6]: 52.30% | 12:00-2:00 AM (% time pH > 4) [4, 6]: 29.57% | 2:00-4:00 AM (% time pH > 4) [4, 7]: 53.11% | 4:00-6:00 AM (% time pH > 4) [4, 7]: 64.94% | 12:00-2:00 AM (% time pH > 4) [4, 7]: 52.31% | % time with pH > 4 (nocturnal hours only) (gastric pH; Fifth dose): Fifth dose: 49% | % time with pH > 4 (total 24 h) (gastric pH; Fifth dose): Fifth dose: 64% | % time with pH > 4 (nocturnal hours only) (gastric pH; First dose): First dose: 25% | % time with pH > 4 (total 24 h) (gastric pH; First dose): First dose: 41% | Nighttime % time pH < 3 (gastric acid secretion [5]; 12 am-8 am, day 5): 65.5% | Nighttime % time pH > 4 (gastric acid secretion [5]; 12 am-8 am, day 5): 27.2% | Nighttime % time pH > 5 (gastric acid secretion [5]; 12 am-8 am, day 5): 11.5% | 24-hour % time pH < 3 (gastric acid secretion [5]; day 5 (fifth dose)): 31.2% | 24-hour % time pH > 4 (gastric acid secretion [5]; day 5 (fifth dose)): 47.6% | 24-hour % time pH > 5 (gastric acid secretion [5]; day 5 (fifth dose)): 21.6%

O=C(O)CC(O)C(=O)O (stereo not drawn) [malate]
proton secretion (frog mucosa): may stimulates proton secretion

O=C(O)CCC(=O)O [Succinic acid, succinic acid]
gastric acid output in humans (gastric acid output): stimulate gastric acid output | proton secretion (frog mucosa): may stimulates proton secretion

O=C(O)CCC(=O)C(=O)O [alpha-ketoglutarate]
proton secretion (frog mucosa): may stimulates proton secretion
